Results from ChEMBL document CHEMBL3885881, “DrugMatrix”.

Organism: Rattus norvegicus
Assay: DrugMatrix - Regimen: Daily Repeat
Assay type: toxicity, organism-based, Sprague-Dawley
Design: regimen Daily Repeat, gender Male, age 6-8 weeks
Conditions: in vivo, po, route oral GAVAGE, vehicle .5 % CMC; for ABSOLUTE BASOPHIL / ABSOLUTE EOSINOPHIL / ABSOLUTE LYMPHOCYTE / ABSOLUTE MONOCYTE / ABSOLUTE SEGMENTED NEUTROPHIL / BASOPHIL / EOSINOPHIL / ERYTHROCYTE COUNT / HEMATOCRIT / HEMOGLOBIN / LEUKOCYTE COUNT / LYMPHOCYTE / MEAN CORPUSCULAR HEMOGLOBIN / MEAN CORPUSCULAR HEMOGLOBIN CONCENTRATION / MEAN CORPUSCULAR VOLUME / MONOCYTE / NEUTROPHIL / NUCLEATED RED BLOOD CELLS / PLATELET COUNT: tissue Blood; for ALANINE AMINOTRANSFERASE / ALBUMIN / ALKALINE PHOSPHATASE / ASPARTATE AMINOTRANSFERASE / BLOOD UREA NITROGEN / CARBON DIOXIDE / CHLORIDE / CHOLESTEROL / CREATINE PHOSPHOKINASE / CREATININE / GLUCOSE / LACTATE DEHYDROGENASE / LIPASE / PHOSPHORUS / POTASSIUM / SODIUM / TOTAL BILIRUBIN / TOTAL PROTEIN / URIC ACID: tissue Plasma
[1] = 0 mg/kg, 72 h, dose level Control, time 3 day
[2] = 0 mg/kg, 120 h, dose level Control, time 5 day
[3] = 15 mg/kg, 72 h, dose level Low, time 3 day

CN1C(=O)CN=C(c2ccccc2)c2cc(Cl)ccc21 [DIAZEPAM]
ABSOLUTE BASOPHIL [1]: 0 CELLS/uL
ABSOLUTE EOSINOPHIL [1]: 0 CELLS/uL
ABSOLUTE LYMPHOCYTE [1]: 12269.67 CELLS/uL
ABSOLUTE MONOCYTE [1]: 160.33 CELLS/uL
ABSOLUTE SEGMENTED NEUTROPHIL [1]: 970 CELLS/uL
BASOPHIL [1]: 0%
EOSINOPHIL [1]: 0%
ERYTHROCYTE COUNT [1]: 5.76 x10E6/uL
HEMATOCRIT [1]: 36.57%
HEMOGLOBIN [1]: 14.22 G/DL
LEUKOCYTE COUNT [1]: 13.4 x10E3/uL
LYMPHOCYTE [1]: 91.67%
MEAN CORPUSCULAR HEMOGLOBIN [1]: 24.67 pg
MEAN CORPUSCULAR HEMOGLOBIN CONCENTRATION [1]: 38.85 G/DL
MEAN CORPUSCULAR VOLUME [1]: 63.52 fL
MONOCYTE [1]: 1.17%
NEUTROPHIL [1]: 7.17%
NUCLEATED RED BLOOD CELLS [1]: 0.33 /100WBC
PLATELET COUNT [1]: 1250.83 x10E3/uL
ALANINE AMINOTRANSFERASE [1]: 49.17 u/L
ALBUMIN [1]: 4.33 G/DL
ALKALINE PHOSPHATASE [1]: 378.5 u/L
ASPARTATE AMINOTRANSFERASE [1]: 82.17 u/L
BLOOD UREA NITROGEN [1]: 15 mg/dL
CARBON DIOXIDE [1]: 34.33 mmol/L
CHLORIDE [1]: 99.17 MEQ/L
CHOLESTEROL [1]: 71.17 mg/dL
CREATINE PHOSPHOKINASE [1]: 258.67 u/L
CREATININE [1]: 0.18 mg/dL
GLUCOSE [1]: 142.67 mg/dL
LACTATE DEHYDROGENASE [1]: 154.33 u/L
LIPASE [1]: 9 u/L
PHOSPHORUS [1]: 11.67 mg/dL
POTASSIUM [1]: 7.13 MEQ/L
SODIUM [1]: 142.22 MEQ/L
TOTAL BILIRUBIN [1]: 0.18 mg/dL
TOTAL PROTEIN [1]: 5.77 G/DL
URIC ACID [1]: 1.55 mg/dL
ABSOLUTE BASOPHIL [2]: 0 CELLS/uL
ABSOLUTE EOSINOPHIL [2]: 23.33 CELLS/uL
ABSOLUTE LYMPHOCYTE [2]: 14943.67 CELLS/uL
ABSOLUTE MONOCYTE [2]: 32 CELLS/uL
ABSOLUTE SEGMENTED NEUTROPHIL [2]: 1084.33 CELLS/uL
BASOPHIL [2]: 0%
EOSINOPHIL [2]: 0.17%
ERYTHROCYTE COUNT [2]: 5.71 x10E6/uL
HEMATOCRIT [2]: 35.28%
HEMOGLOBIN [2]: 14.27 G/DL
LEUKOCYTE COUNT [2]: 16.08 x10E3/uL
LYMPHOCYTE [2]: 93%
MEAN CORPUSCULAR HEMOGLOBIN [2]: 25.02 pg
MEAN CORPUSCULAR HEMOGLOBIN CONCENTRATION [2]: 40.43 G/DL
MEAN CORPUSCULAR VOLUME [2]: 61.82 fL
MONOCYTE [2]: 0.17%
NEUTROPHIL [2]: 6.67%
NUCLEATED RED BLOOD CELLS [2]: 0.33 /100WBC
PLATELET COUNT [2]: 1274 x10E3/uL
ALANINE AMINOTRANSFERASE [2]: 54.17 u/L
ALBUMIN [2]: 4.22 G/DL
ALKALINE PHOSPHATASE [2]: 373.17 u/L
ASPARTATE AMINOTRANSFERASE [2]: 81.83 u/L
BLOOD UREA NITROGEN [2]: 16.67 mg/dL
CARBON DIOXIDE [2]: 30.33 mmol/L
CHLORIDE [2]: 99 MEQ/L
CHOLESTEROL [2]: 71 mg/dL
CREATINE PHOSPHOKINASE [2]: 273.5 u/L
CREATININE [2]: 0.22 mg/dL
GLUCOSE [2]: 141.83 mg/dL
LACTATE DEHYDROGENASE [2]: 153.67 u/L
LIPASE [2]: 10.33 u/L
PHOSPHORUS [2]: 11.38 mg/dL
POTASSIUM [2]: 7.08 MEQ/L
SODIUM [2]: 142.75 MEQ/L
TOTAL BILIRUBIN [2]: 0.18 mg/dL
TOTAL PROTEIN [2]: 6.1 G/DL
URIC ACID [2]: 1.67 mg/dL
ABSOLUTE BASOPHIL [3]: 0 CELLS/uL
ABSOLUTE EOSINOPHIL [3]: 0 CELLS/uL
ABSOLUTE LYMPHOCYTE [3]: 12631.33 CELLS/uL
ABSOLUTE MONOCYTE [3]: 43.67 CELLS/uL
ABSOLUTE SEGMENTED NEUTROPHIL [3]: 1191.67 CELLS/uL
BASOPHIL [3]: 0%
EOSINOPHIL [3]: 0%
ERYTHROCYTE COUNT [3]: 5.07 x10E6/uL
HEMATOCRIT [3]: 32.77%
HEMOGLOBIN [3]: 13.23 G/DL
LEUKOCYTE COUNT [3]: 13.87 x10E3/uL
LYMPHOCYTE [3]: 91%
MEAN CORPUSCULAR HEMOGLOBIN [3]: 26.23 pg
MEAN CORPUSCULAR HEMOGLOBIN CONCENTRATION [3]: 40.4 G/DL
MEAN CORPUSCULAR VOLUME [3]: 64.77 fL
MONOCYTE [3]: 0.33%
NEUTROPHIL [3]: 8.67%
NUCLEATED RED BLOOD CELLS [3]: 0 /100WBC
PLATELET COUNT [3]: 1275.67 x10E3/uL
ALANINE AMINOTRANSFERASE [3]: 54 u/L
ALBUMIN [3]: 4.07 G/DL
ALKALINE PHOSPHATASE [3]: 332.67 u/L
ASPARTATE AMINOTRANSFERASE [3]: 79.33 u/L
BLOOD UREA NITROGEN [3]: 16.67 mg/dL
CARBON DIOXIDE [3]: 27 mmol/L
CHLORIDE [3]: 101.67 MEQ/L
CHOLESTEROL [3]: 72.67 mg/dL
CREATINE PHOSPHOKINASE [3]: 227.67 u/L
CREATININE [3]: 0.25 mg/dL
GLUCOSE [3]: 180 mg/dL
LACTATE DEHYDROGENASE [3]: 173.33 u/L
LIPASE [3]: 9 u/L
PHOSPHORUS [3]: 13.13 mg/dL
POTASSIUM [3]: 7.43 MEQ/L
SODIUM [3]: 143.37 MEQ/L
TOTAL BILIRUBIN [3]: 0.2 mg/dL
TOTAL PROTEIN [3]: 5.57 G/DL
URIC ACID [3]: 1.97 mg/dL
